Molecules are shown by their SMILES.

For assay [1], the target named is T1, V. cholerae CqsS receptor (Vibrio cholerae serotype O1, UniProt Q9KM66). Conditions: cited from earlier work.
In assay [2] the target is T1, V. cholerae CqsS receptor. As to the kind of experiment: CqsS agonist bioassay. It counts as cell-based.

T1 sequence (Q9KM66 whole entry, looked up): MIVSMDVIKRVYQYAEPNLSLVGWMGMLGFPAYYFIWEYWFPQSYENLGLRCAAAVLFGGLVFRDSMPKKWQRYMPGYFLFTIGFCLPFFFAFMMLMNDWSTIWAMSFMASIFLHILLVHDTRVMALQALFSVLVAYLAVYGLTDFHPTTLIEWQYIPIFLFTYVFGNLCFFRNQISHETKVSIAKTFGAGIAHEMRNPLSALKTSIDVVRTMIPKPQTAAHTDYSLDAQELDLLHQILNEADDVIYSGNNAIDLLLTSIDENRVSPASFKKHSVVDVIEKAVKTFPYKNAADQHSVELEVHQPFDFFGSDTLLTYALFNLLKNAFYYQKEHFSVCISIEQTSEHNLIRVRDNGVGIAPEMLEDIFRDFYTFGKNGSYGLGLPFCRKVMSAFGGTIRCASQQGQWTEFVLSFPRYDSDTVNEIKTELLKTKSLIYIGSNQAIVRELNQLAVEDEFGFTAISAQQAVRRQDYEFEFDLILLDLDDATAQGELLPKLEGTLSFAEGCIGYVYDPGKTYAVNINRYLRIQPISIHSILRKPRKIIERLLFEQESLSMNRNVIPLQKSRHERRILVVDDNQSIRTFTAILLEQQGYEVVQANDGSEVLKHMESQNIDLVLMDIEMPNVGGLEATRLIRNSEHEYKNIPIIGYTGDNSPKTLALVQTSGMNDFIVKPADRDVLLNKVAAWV

Take `C/C=C(\N)C(=O)CCCCCCCCC` [Ea-CAI-1]: the “potency as CqsS agonist compared to CAI-1” value in assay [1] is recorded as “an order of magnitude more potent”. Moreover, the EC50 in assay [2] (CqsS agonist bioassay, mean of triplicate analyses) came out at 4.1 nM. Moreover, in assay [2] (Ea-CAI-1 set at 100%), the “% Response (percent maximal bioluminescence with respect to Ea-CAI-1)” value amounted to 100%.

By EC50 is commonly meant the concentration giving half of the maximal effect. Low values mean higher potency in that assay, high ones lower potency in that assay.

The values are drawn from article PMC3890260 (Chemical science (Royal Society of Chemistry : 2010), 2013).
